In patent US20260217683A1, “PYRIDAZINONE HETEROCYCLIC COMPOUND MYOSIN II INHIBITOR AND USE THEREOF” (Xizang Haisco Pharmaceutical Co., Ltd., priority 2023, published 2026):
Read-outs that look alike come from different tables or passages of the source.

Legend:
Assay type in all cases: biochemical
[1] = target: T1, smooth muscle myosin S1 (Gallus gallus, UniProt P10587); assay: Inhibition of hydrolysis of ATP by smooth muscle myosin S1 fragments; conditions: for inhibition at 100 µM: 100 μM compound
T1 construct: purchased Cytoskeleton #CS-MYS05
T1 sequence (P10587 84-789 limits assumed): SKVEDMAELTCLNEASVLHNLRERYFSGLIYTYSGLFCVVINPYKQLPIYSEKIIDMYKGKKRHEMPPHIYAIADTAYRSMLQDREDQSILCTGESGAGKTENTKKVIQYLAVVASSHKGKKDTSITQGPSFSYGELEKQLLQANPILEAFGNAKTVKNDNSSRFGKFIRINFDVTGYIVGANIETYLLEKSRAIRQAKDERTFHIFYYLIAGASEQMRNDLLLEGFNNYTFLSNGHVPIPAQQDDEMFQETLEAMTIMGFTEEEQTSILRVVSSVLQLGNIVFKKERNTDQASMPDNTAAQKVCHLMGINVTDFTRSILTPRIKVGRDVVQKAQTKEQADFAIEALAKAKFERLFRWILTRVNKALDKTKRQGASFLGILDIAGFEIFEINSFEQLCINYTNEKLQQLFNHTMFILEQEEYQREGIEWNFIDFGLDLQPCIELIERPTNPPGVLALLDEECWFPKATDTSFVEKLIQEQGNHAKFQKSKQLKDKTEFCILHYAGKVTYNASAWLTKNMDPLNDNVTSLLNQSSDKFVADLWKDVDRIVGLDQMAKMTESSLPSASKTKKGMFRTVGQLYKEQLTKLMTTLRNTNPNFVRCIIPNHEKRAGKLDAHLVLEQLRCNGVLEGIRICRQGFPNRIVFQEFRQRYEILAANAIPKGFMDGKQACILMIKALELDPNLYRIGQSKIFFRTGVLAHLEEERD
T1 sequence (P02607 whole entry partner, the tested form may be a part): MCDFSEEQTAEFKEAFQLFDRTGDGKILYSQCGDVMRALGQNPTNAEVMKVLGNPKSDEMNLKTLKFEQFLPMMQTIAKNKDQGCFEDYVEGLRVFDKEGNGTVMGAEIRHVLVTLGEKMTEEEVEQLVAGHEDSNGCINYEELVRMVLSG
Procedure: The purpose of this test was to evaluate the ability of compounds to inhibit the hydrolysis of ATP by smooth muscle myosin Si fragments. The determination method was as follows: • 1. Solution formulation • F-actin polymer: Cardiac Actin powder (#CS-AD99, Cytoskeleton) was dissolved in a buffer (5 mM Pipes-KOH solution, PH=7.0, containing 100 μM ATP and 500 μM DTT) to form a 2 mg/mL solution and the solution was left at room temperature for 30 min; then 2 mM MgCl2 and 2 mM EGTA were added and the obtained system was left at room temperature for 40 min; • Smooth muscle SI fragment (#CS-MYS05, Cytoskeleton) was diluted with a pre-cooled PM12 buffer containing 1 mM DTT (12 mM Pipes-KOH solution, PH=7.0, containing 2 mM MgCl2) to form a 0.7 mg/mL solution; • ATP (#BSA04-001, Cytoskeleton) was diluted to 5 mM working solution with 15 mM Tris-HCL (PH=7.5); • 2. […] Experimental steps: • adding 10 μL of compound working solution+6 μL of F-actin polymer+4 μL of Smooth muscle Si fragment solution to the compound wells; • adding 10 μL of PM12 buffer containing DMSO+6 μL of F-actin polymer+4 μL of Smooth muscle S1 fragment solution to positive control wells; • adding 10 μL of PM12 buffer containing DMSO+6 μL of F-actin polymer+4 μL of PM12 buffer to negative control wells; • adding […] of 5 mM ATP working solution to all test wells to start the reaction, gently mixing and incubating at 37° C. for 20 min; • after the reaction was completed, taking 6 μLL of reaction liquid, adding 24 μL of PM12 buffer for 5-fold dilution, then detecting the content of the product Pi with a phosphate kit (#BK054, Cytoskeleton); • adding a standard according to the instructions, adding 70 μL of CytoPhos Reagent (#BK054, Cytoskeleton) to all wells and incubating at room temperature for 10 min before detection. • 4. Detection: • the OD value of each well was detected at 650 nm. The standard curve was fitted according to Pi standard concentration and OD value, and the Pi concentration of each test well was obtained. Inhibition (%)=(positive control well−test well)/positive control well*100%.

[2] = system: rabbit skeletal muscle myosin; assay: Inhibition of hydrolysis of ATP by rabbit skeletal muscle myosin
Procedure: The purpose of this test was to evaluate the ability of compounds to inhibit the hydrolysis of ATP by rabbit skeletal muscle myosin. The determination method was as follows:
• Preformed F-actin filaments (#AKF99-B, Cytoskeleton) were diluted to 1 mg/mL with Reaction buffer (25 mM Tris-HCL, pH 7.5+35 mM KCl+0.1 mM EGTA+1 mM MgCl2); • Rabbit myosin (#MYO2-A, Cytoskeleton) was diluted to 0.1 mg/mL with Resuspension buffer (15 mM Tris-HCL, PH7.5+0.2 M KCl+1 mM MgCl2); • ATP (#BSA04-001, Cytoskeleton) was diluted to 3 mM working solution with 15 mM Tris-HCL (PH=7.5);
• adding 13 μL reaction buffer+12 μL F-actin to actin control wells; • adding 10 μL reaction buffer+12 μL F-actin+3 μL myosin II to positive control wells; • adding 10 μL of compound working solution+12 μL of F-actin+3 μL of myosin II to the compound wells; • adding 5 μL of ATP working solution to all test wells to start the reaction, and simultaneously adding a sample to the Pi standard wells according to the instruction (#BK054, Cytoskeleton); • gently mixing and accurately incubating at 37° C. for 60 min; • adding 70 μL of CytoPhos Reagent (#BK054, Cytoskeleton) to each well and incubating for 10 min to stop the reaction.
• the OD value of each well was detected at 650 nm using the endpoint method. The standard curve was fitted according to Pi concentration and OD value, and the Pi concentration of each test well was obtained. Inhibition (%)=(Pi positive control well-Pi test well)/Pi positive control well*100%. The Inhibition %-[…] curve was fitted with Graphpad Prism 8 software, and IC50 was calculated.

[3] = target: T2, cardiac myosin SII (Bos taurus, UniProt Q9BE39); assay: Inhibition of hydrolysis of ATP by cardiac myosin SII; conditions: 100 μM compound
T2 construct: purchased Cytoskeleton #MYO3-A
T2 sequence (Q9BE39 whole entry): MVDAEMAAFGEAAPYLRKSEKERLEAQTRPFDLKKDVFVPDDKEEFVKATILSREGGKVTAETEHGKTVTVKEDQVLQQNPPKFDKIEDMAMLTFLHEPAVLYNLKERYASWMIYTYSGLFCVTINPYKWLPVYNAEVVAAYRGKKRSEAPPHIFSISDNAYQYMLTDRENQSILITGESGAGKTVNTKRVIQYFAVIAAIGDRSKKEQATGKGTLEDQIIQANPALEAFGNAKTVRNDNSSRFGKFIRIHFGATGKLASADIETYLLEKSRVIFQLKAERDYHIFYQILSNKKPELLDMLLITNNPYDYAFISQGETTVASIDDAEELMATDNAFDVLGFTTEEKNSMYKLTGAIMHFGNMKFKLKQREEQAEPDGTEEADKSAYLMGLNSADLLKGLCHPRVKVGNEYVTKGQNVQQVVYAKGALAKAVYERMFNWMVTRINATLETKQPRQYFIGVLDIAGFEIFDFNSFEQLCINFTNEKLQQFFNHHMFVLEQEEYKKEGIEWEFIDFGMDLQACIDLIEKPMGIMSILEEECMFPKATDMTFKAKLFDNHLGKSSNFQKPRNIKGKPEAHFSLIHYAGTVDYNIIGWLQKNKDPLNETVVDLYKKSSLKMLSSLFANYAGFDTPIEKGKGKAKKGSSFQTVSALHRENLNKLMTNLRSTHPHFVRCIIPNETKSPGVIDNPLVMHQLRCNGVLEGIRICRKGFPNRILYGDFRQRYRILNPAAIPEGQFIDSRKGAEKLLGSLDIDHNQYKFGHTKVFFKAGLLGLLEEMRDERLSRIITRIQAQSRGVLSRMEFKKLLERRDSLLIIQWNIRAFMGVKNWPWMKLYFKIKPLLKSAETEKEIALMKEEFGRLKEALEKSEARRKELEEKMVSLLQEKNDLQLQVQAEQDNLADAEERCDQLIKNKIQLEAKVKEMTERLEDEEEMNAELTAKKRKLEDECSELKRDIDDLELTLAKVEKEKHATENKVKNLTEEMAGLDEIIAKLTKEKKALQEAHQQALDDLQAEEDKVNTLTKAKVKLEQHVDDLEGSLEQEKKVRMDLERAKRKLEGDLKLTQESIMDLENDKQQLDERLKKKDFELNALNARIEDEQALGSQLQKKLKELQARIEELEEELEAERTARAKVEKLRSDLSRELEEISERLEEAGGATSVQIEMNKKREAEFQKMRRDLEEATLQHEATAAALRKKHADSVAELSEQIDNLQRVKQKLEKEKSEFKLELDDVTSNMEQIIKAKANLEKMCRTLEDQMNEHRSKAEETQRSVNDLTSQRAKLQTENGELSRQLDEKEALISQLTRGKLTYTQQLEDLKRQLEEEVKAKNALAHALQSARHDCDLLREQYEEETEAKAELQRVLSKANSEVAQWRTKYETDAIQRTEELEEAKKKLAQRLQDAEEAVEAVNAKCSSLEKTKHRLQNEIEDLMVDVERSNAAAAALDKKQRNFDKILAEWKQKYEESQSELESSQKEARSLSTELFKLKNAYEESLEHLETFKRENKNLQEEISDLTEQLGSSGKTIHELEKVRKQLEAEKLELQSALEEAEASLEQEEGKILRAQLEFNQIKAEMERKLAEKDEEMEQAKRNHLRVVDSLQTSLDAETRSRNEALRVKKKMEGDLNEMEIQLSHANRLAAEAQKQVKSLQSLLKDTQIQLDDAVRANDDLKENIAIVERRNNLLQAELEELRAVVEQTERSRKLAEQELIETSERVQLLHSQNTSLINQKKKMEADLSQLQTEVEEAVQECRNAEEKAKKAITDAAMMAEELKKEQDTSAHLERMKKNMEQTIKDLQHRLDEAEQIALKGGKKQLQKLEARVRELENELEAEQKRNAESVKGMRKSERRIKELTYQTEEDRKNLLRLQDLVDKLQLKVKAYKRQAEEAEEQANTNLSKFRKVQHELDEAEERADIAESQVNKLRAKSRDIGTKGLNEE
T2 sequence (P85100 whole entry partner): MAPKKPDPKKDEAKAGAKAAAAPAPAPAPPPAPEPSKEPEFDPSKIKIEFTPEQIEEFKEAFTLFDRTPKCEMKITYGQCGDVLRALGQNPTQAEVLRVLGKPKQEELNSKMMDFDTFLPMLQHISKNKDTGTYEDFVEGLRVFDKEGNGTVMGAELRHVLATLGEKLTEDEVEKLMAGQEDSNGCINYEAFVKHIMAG
T2 sequence (Q3SZE5 whole entry partner): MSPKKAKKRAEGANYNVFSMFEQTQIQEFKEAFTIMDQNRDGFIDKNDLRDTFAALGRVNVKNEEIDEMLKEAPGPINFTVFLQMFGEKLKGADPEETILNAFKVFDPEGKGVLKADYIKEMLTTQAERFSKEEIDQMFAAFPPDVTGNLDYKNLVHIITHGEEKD
Procedure: The purpose of this test was to evaluate the ability of compounds to inhibit the hydrolysis of ATP by cardiac myosin SII. The determination method was as follows: • 1. Solution formulation: • Preformed F-actin filaments (#AKF99-B, Cytoskeleton) were diluted to 1 mg/mL with Reaction buffer (15 mM Tris-HCL. PH7.5+10 mM KCl+0.1 mM EGTA+2 mM MgCl2); • Cardiac Muscle myosin (#MYO3-A, Cytoskeleton) was diluted to 1 mg/mL with Resuspension buffer (15 mM Tris-HCL, PH7.5+0.2M KCl+1 mM MgCl2); • ATP (#BSA04-001, Cytoskeleton) was diluted to 3 mM working solution with 15 mM Tris-HCL (PH=7.5); • 2. Formulation of working solution of compounds: the final compound concentration was 100 μM • 3. Experimental steps: • adding 10 μL of compound working solution+12 μL of Preformed F-actin filaments+3 μL of Cardiac Muscle myosin to the compound wells; • adding 10 μL of reaction buffer containing DMSO+12 μL Preformed F-actin filaments +3 μL Cardiac Muscle myosin to positive control wells; • adding 10 μL of reaction buffer containing DMSO+12 μL Preformed F-actin filaments +3 μL Resuspension buffer to negative control wells; • adding 5 μL of 3 mM ATP working solution to all test wells to start the reaction, gently mixing and incubating at 37° C. for 2 h; • after the reaction was completed, taking 6 μL of reaction liquid, adding 24 μL of reaction buffer for 5-fold dilution, then detecting the content of the product Pi with a phosphate kit (#BK054, Cytoskeleton); • adding a sample to Pi standard wells according to the instructions; • adding 70 μL of CytoPhos Reagent (#BK054, Cytoskeleton) to each well and incubating at room temperature for 10 min before detection. • 4. Detection: • the OD value of each well was detected at 650 nm. The standard curve was fitted according to Pi standard concentration and OD value, and the Pi concentration of each test well was obtained. Inhibition (%)=(positive control well−test well)/positive control well*100%.

[4] = inhibition of hydrolysis of ATP, class symbols, read-out: Rabbit skeletal muscle myosin (IC50)
[5] = read-out: IC50 for inhibition of hydrolysis of ATP by rabbit skeletal muscle myosin

| SMILES | inhibition at 100 µM [1] [%] | IC50 [2, 4] [nM] | inhibition at 100 µM [3] [%] | IC50 [2, 5] [nM] | inhibition at 50 µM [1] [%] |
| --- | --- | --- | --- | --- | --- |
| O=c1ccc(-c2cnc(OCC(F)F)nc2)nn1Cc1ccc2c(c1)CCC2 [Compound 67] | 3 | < 2500 | 2 |  |  |
| O=c1ccc(-c2cnc(OCC(F)(F)F)nc2)nn1Cc1cc(F)c2c(c1)CCC2 [Compound 73] | -3 | < 2500 | 10.2 | 550 |  |
| O=c1ccc(-c2cnc(OCC(F)F)nc2)nn1Cc1cc(F)c2c(c1)CCC2 [Compound 74] | 5.3 | < 2500 | 15.8 | 290 |  |
| O=c1ccc(-c2cnc(OCC3CC3)nc2)nn1Cc1ccc2c(c1)CCC2 [Compound 80] |  | < 2500 | -17.8 | 500 | 9.3 |
| O=c1ccc(-c2cnc(OCC3CC3(F)F)nc2)nn1Cc1ccc2c(c1)CCC2 (stereo not drawn) [Compound 81] |  | < 2500 | -5.6 |  | 10.9 |
| O=c1ccc(-c2cnc(OC3CC3)nc2)nn1Cc1ccc2c(c1)CCC2 [Compound 84] |  | < 2500 | -3.8 |  | 20.2 |
| O=c1ccc(-c2cnc(OCC(F)(F)F)nc2)nn1Cc1ccc2c(c1)CCCC2(F)F [Compound 89] | 17.6 | 2500 to 20000 | 13.7 |  |  |
| O=c1ccc(-c2cnc(OCC(F)(F)F)nc2)nn1Cc1ccc2c(c1)C(F)(F)CC2 [Compound 93] | -14 | < 2500 | -16 | 700 |  |
| O=c1ccc(-c2cnc(OC3CCOCC3)nc2)nn1Cc1ccc2c(c1)CC2 [Compound 95] | -2 | 2500 to 20000 | 2 |  |  |
| O=c1cc2c(nn1Cc1ccc3c(c1)CC3)-c1cnc(OCC(F)(F)F)nc1CC2 [Compound 102] | -2 | < 2500 | -5 | 400 |  |
| CN1CC(Oc2ncc(-c3ccc(=O)n(Cc4ccc5c(c4)CC5)n3)cn2)C1 [Compound 104] | 20.7 | < 2500 | 8.9 | 800 |  |
| N#CC1(COc2ncc(-c3ccc(=O)n(Cc4ccc5c(c4)CCC5)n3)cn2)CC1 [Compound 105] | 16 | < 2500 | 16 | 900 |  |
| O=c1ccc(-c2cnc(OCC3(F)CC3)nc2)nn1Cc1ccc2c(c1)CCC2 [Compound 108] | -0.9 | < 2500 | 4.5 | 200 |  |
| O=c1ccc(-c2cnc(C3CCC3)nc2)nn1Cc1ccc2c(c1)CC2 [Compound 109] | -3.5 | < 2500 | 9.7 | 100 |  |
